Among the data in ChEMBL document CHEMBL1926524, “Cyclolobatriene, a novel prenylated germacrene diterpene, from the soft coral Lobophytum pauciflorum” (Bioorg Med Chem, 2012) are IC50 values, retold here.

Broadly, the pIC50 is the IC50 on a negative log10 scale, so that one unit is a factor of ten. Higher therefore signals a small IC50.

pIC50: −log10 of the molar value.

In the assay the test system is A-431. In words: Cytotoxicity against human A431 cells after 4 days by coulter counting. It counts as functional, cell-based. The following applies: A-431, 96 h.
`C=C[C@@]1(C)CC[C@H](/C(C)=C/C=C/C(C)(C)O)C[C@@H]1C(=C)C` [FUSCOL]: the pIC50 is 6.28. For the compound `C/C1=C\C[C@@H](C2=CC[C@H](C(C)(C)O)OC2)CC/C(C)=C/CC1` [CYCLOLOBATRIENE], the negative-log IC50 (pIC50) is 6.19. For `C/C1=C\C[C@@H](/C(C)=C/C=C/C(C)(C)O)CC/C(C)=C/CC1` [EUNICOL], the negative logarithm of the IC50 (pIC50) is 6.46. Turning to `C=C[C@@]1(C)CC[C@H](C2=CC[C@H](C(C)(C)O)OC2)C[C@@H]1C(=C)C` [LOBATRIENE], the negative-log IC50 (pIC50) is 6.39.
